pIC50: −log10 of the molar value. Some results are limits rather than exact numbers.

The assay addresses T1, Menin MLL 4-43 (Homo sapiens, UniProt O00255).
T1 sequence (O00255 1-610): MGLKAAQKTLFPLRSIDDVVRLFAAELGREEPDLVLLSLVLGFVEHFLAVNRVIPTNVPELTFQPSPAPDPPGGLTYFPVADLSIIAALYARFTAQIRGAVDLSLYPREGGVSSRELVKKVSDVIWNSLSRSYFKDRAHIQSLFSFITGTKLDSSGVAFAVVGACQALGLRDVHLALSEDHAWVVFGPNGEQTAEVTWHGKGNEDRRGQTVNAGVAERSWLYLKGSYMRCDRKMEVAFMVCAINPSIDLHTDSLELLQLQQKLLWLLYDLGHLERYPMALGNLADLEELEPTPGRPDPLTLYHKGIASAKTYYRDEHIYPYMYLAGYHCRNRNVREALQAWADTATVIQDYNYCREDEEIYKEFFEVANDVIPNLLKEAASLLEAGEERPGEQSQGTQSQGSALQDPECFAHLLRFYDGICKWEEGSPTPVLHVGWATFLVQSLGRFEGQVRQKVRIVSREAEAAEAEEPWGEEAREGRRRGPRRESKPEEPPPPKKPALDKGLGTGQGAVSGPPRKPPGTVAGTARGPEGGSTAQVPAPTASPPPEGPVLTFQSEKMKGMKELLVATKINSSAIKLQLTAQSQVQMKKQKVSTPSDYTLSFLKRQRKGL
As to the kind of experiment: Fluorescence polarization (FP) competition assay of the menin-MLL interaction. It is filed as binding. Particulars: fluorescence polarization assay; read-out: Menin MLL 4-43 IC50. (In general: In fluorescence polarisation assays a small probe gives low polarisation when free and higher when bound to something large.)
Regarding `CNc1nc(NC2CCN(Cc3ccc4c(cc(C#N)n4C[C@H](C)N4CCC(F)(F)CC4)c3C)CC2)c2cc(CC(F)(F)F)sc2n1` [Compound 195], the pIC50 (as a rule, the negative decadic logarithm of the IC50, by convention in mol/L) was 6.60 to 7.30.

As for `CNc1nc(NC2CCN(Cc3ccc4c(cc(C#N)n4C[C@H](C)N4CCN(S(C)(=O)=O)[C@H](C(=O)N(C)C)C4)c3C)CC2)c2cc(CC(F)(F)F)sc2n1` [Compound 196], the pIC50 was > 7.30.

Take `CNC(=O)[C@@H]1CN([C@@H](C)Cn2c(C#N)cc3c(C)c(CN4CCC(Nc5nc(NC)nc6sc(CC(F)(F)F)cc56)CC4)ccc32)CCN1S(C)(=O)=O` [Compound 197]: the pIC50 was > 7.30.

On to `CNc1nc(NC2CCN(Cc3ccc4c(cc(C#N)n4C[C@H](C)N4CCN(S(=O)(=O)CF)CC4)c3C)CC2)c2cc(CC(F)(F)F)sc2n1` [Compound 198], for which the pIC50 is 6.60 to 7.30.

For `CCOC(=O)c1c(CC(F)(F)F)sc2ncnc(NC3CCN(Cc4ccc5c(cc(C#N)n5C[C@H](C)N5CCN(S(C)(=O)=O)CC5)c4C)CC3)c12` [Compound 200], the pIC50 was < 6.00.

With `Cc1nc(NC2CCN(Cc3ccc4c(cc(C#N)n4C[C@@H](C)N4CCN(S(C)(=O)=O)CC4)c3C)CC2)c2cc(CC(F)(F)F)sc2n1` [Compound 201], the pIC50 was 6.00 to 7.70.

With `CNc1nc(NC2CCN(Cc3ccc4c(cc(C#N)n4C[C@H](C)N4CCC(CC(=O)N(C)C)CC4)c3C)CC2)c2cc(CC(F)(F)F)sc2n1` [Compound 202], the negative-log IC50 (pIC50) was > 7.30.

Take `CNc1nc(NC2CCN(Cc3ccc4c(cc(C#N)n4C[C@H](C)N4CCC(CC(N)=O)CC4)c3C)CC2)c2cc(CC(F)(F)F)sc2n1` [Compound 204]: the pIC50 is > 7.30.

Take `CNC(=O)CC1CCN([C@@H](C)Cn2c(C#N)cc3c(C)c(CN4CCC(Nc5nc(NC)nc6sc(CC(F)(F)F)cc56)CC4)ccc32)CC1` [Compound 206]: the pIC50 is > 7.30.

Regarding `CNc1nc(NC2CCN(Cc3ccc4c(cc(C#N)n4C[C@H](C)N4CCN(S(C)(=O)=O)[C@H](C#N)C4)c3C)CC2)c2cc(CC(F)(F)F)sc2n1` [Compound 209], the pIC50 was > 7.30.

Take `CCS(=O)(=O)N1CCN([C@@H](C)Cn2c(C#N)cc3c(C)c(CN4CCC(Nc5nc(NC)nc6sc(CC(F)(F)F)cc56)CC4)ccc32)CC1` [Compound 210]: the pIC50 was > 7.30.

On to `CNc1nc(NC2CCN(Cc3ccc4c(cc(C#N)n4C[C@H](C)N4CCN(S(=O)(=O)C5CC5)CC4)c3C)CC2)c2cc(CC(F)(F)F)sc2n1` [Compound 211], for which the pIC50 is 6.60 to 7.30.

On to `C=CC(=O)NC1CCN([C@@H](C)Cn2c(C#N)cc3c(C)c(CN4CCC(Nc5nc(NC)nc6sc(CC(F)(F)F)cc56)CC4)ccc32)CC1` [Compound 212], for which the pIC50 was > 7.30.

As to `CCC(=O)NC1CCN([C@@H](C)Cn2c(C#N)cc3c(C)c(CN4CCC(Nc5nc(NC)nc6sc(CC(F)(F)F)cc56)CC4)ccc32)CC1` [Compound 213], the pIC50 is > 7.30.

As for `CNc1nc(NC2CCN(Cc3ccc4c(cc(C#N)n4C[C@H](C)N4CCOC(C(=O)N(C)C)C4)c3C)CC2)c2cc(CC(F)(F)F)sc2n1` (some centres unmarked) [Compound 215], the pIC50 was > 7.30.

Consider `CNc1nc(NC2CCN(Cc3ccc4c(cc(C#N)n4C[C@H](C)N4CCOC(C(N)=O)C4)c3C)CC2)c2cc(CC(F)(F)F)sc2n1` (some centres unmarked) [Compound 216], for which the pIC50 was > 7.30.

On to `Cc1nc(NC2CCN(Cc3ccc4c(cc(C#N)n4C[C@H](C)N4CCS(=O)(=O)CC4)c3C)CC2)c2cc(CC(F)(F)F)sc2n1` [Compound 219], for which the pIC50 was > 7.30.

As to `CNC(=O)CC1CCN([C@@H](C)Cn2c(C#N)cc3c(C)c(CN4CCC(Nc5nc(C)nc6sc(CC(F)(F)F)cc56)CC4)ccc32)CC1` [Compound 220], the pIC50 is > 7.30.

As to `Cc1nc(NC2CCN(Cc3ccc4c(cc(C#N)n4C[C@H](C)N4CCC(CC(=O)N(C)C)CC4)c3C)CC2)c2cc(CC(F)(F)F)sc2n1` [Compound 221], the negative logarithm of the IC50 (pIC50) was > 7.30.

On to `Cc1c(CN2CCC(Nc3nc(F)nc4sc(CC(F)(F)F)cc34)CC2)ccc2c1cc(C#N)n2C[C@H](C)N1CCN(S(C)(=O)=O)CC1` [Compound 222], for which the pIC50 was > 7.30.

Consider `CNc1nc(NC2CCN(Cc3ccc4c(cc(C#N)n4C[C@H](C)N4CCNCC4=O)c3C)CC2)c2cc(CC(F)(F)F)sc2n1` [Compound 225], for which the pIC50 was > 7.30.

Turning to `CNc1nc(NC2CCN(Cc3ccc4c(cc(C#N)n4C[C@H](C)N4CCN(C)CC4=O)c3C)CC2)c2cc(CC(F)(F)F)sc2n1` [Compound 226], the pIC50 was > 7.30.

Take `CNc1nc(NC2CCN(Cc3ccc4c(cc(C#N)n4CC(C)c4ccc(=O)[nH]c4)c3C)CC2)c2cc(CC(F)(F)F)sc2n1` (centres unmarked) [Compound 229]: the pIC50 was > 7.30.

As to `CNc1nc(NC2CCN(Cc3ccc4c(cc(C#N)n4CC(C)c4cn[nH]c4)c3C)CC2)c2cc(CC(F)(F)F)sc2n1` (centres unmarked) [Compound 230], the pIC50 is 6.60 to 7.30.

For the molecule `CNc1nc(NC2CCN(Cc3ccc4c(cc(C#N)n4C[C@H](C)N4CCN(S(C)(=O)=O)C(CO)C4)c3C)CC2)c2cc(CC(F)(F)F)sc2n1` (some centres unmarked) [Compound 233], the pIC50 is > 7.30.

As to `Cc1c(CN2CCC(Nc3nc(CF)nc4sc(CC(F)(F)F)cc34)CC2)ccc2c1cc(C#N)n2C[C@H](C)N1CCN(S(C)(=O)=O)CC1` [Compound 241], the negative-log IC50 (pIC50) was 6.60 to 7.30.

For the molecule `Cc1nc(NC2CCN(Cc3ccc4c(cc(C#N)n4C[C@H](C)N4CCN(S(C)(=O)=O)CC4)c3C)CC2)c2c(C)c(CC(F)(F)F)sc2n1` [Compound 242], the pIC50 was < 6.00.

`CNc1nc(NC2CCN(Cc3ccc4c(cc(C#N)n4C[C@H](C)N4CCN(C)C(=O)C4)c3C)CC2)c2cc(CC(F)(F)F)sc2n1` [Compound 243]: the pIC50 is > 7.30.

For the molecule `CNc1nc(NC2CCN(Cc3ccc4c(cc(C#N)n4C[C@H](C)N4CCNC(=O)C4)c3C)CC2)c2cc(CC(F)(F)F)sc2n1` [Compound 244], the negative logarithm of the IC50 (pIC50) was > 7.30.

For the molecule `CC(=O)OCc1nc(NC2CCN(Cc3ccc4c(cc(C#N)n4C[C@H](C)N4CCN(S(C)(=O)=O)CC4)c3C)CC2)c2cc(CC(F)(F)F)sc2n1` [Compound 245], the pIC50 is 6.60 to 7.30.

Regarding `Cc1c(CN2CCC(Nc3nc(CO)nc4sc(CC(F)(F)F)cc34)CC2)ccc2c1cc(C#N)n2C[C@H](C)N1CCN(S(C)(=O)=O)CC1` [Compound 246], the pIC50 was > 7.30.

`CNc1nc(NC2CCN(Cc3ccc4c(cc(C#N)n4CC(C)C4CCN(S(C)(=O)=O)CC4)c3C)CC2)c2cc(CC(F)(F)F)sc2n1` (centres unmarked) [Compound 247]: the pIC50 is > 7.30.

On to `CNc1nc(NC2CCN(Cc3ccc4c(cc(C#N)n4C[C@H](C)N4CCN(S(=O)(=O)CC(C)C)CC4)c3C)CC2)c2cc(CC(F)(F)F)sc2n1` [Compound 248], for which the pIC50 is > 7.30.

Turning to `CNc1nc(NC2CCN(Cc3ccc4c(cc(C#N)n4C[C@H](C)N4CCC(NS(C)(=O)=O)CC4)c3C)CC2)c2cc(CC(F)(F)F)sc2n1` [Compound 249], the pIC50 was > 7.30.

In the case of `CNc1nc(NC2CCN(Cc3ccc4c(cc(C#N)n4C[C@H](C)N4CCN(S(=O)(=O)CC5CC5)CC4)c3C)CC2)c2cc(CC(F)(F)F)sc2n1` [Compound 250], the pIC50 is > 7.30.

For the molecule `CNc1nc(NC2CCN(Cc3ccc4c(cc(C#N)n4C[C@H](C)N4CCN(S(=O)(=O)C(C)C)CC4)c3C)CC2)c2cc(CC(F)(F)F)sc2n1` [Compound 251], the pIC50 is > 7.30.

As for `CNc1nc(NC2CCN(Cc3ccc4c(cc(C#N)n4C[C@H](C)N4CCN(S(C)(=O)=O)CC4)c3C)CC2)c2c(C)c(CC(F)(F)F)sc2n1` [Compound 252], the pIC50 is < 6.00.

For the molecule `Cc1nc(NC2CCN(Cc3ccc4c(cc(C#N)n4C[C@H](C)N4CCC(S(C)(=O)=O)CC4)c3C)CC2)c2cc(C(O)C(F)(F)F)sc2n1` (some centres unmarked) [Compound 280], the pIC50 was 6.60 to 7.30.

`CNc1nc(NC2CCN(Cc3ccc4c(cc(C#N)n4C[C@H](C)N4C5CCC4CN(S(C)(=O)=O)C5)c3C)CC2)c2cc(CC(F)(F)F)sc2n1` [Compound 282]: the negative logarithm of the IC50 (pIC50) is > 7.30.

Take `Cc1nc(NC2CCN(Cc3ccc4c(cc(C#N)n4C[C@H](C)N4C5CCC4CN(S(C)(=O)=O)C5)c3C)CC2)c2cc(CC(F)(F)F)sc2n1` [Compound 283]: the negative logarithm of the IC50 (pIC50) was > 7.30.

As for `Cc1c(CN2CCC(Nc3ncnc4sc(CC(F)(F)F)cc34)CC2)ccc2c1cc(C#N)n2CCN1CCC(NS(C)(=O)=O)CC1` [Compound 1000], the pIC50 was 6.00 to 7.70.

Turning to `CC(=O)NC1CCN(CCn2c(C#N)cc3c(C)c(CN4CCC(Nc5ncnc6sc(CC(F)(F)F)cc56)CC4)ccc32)CC1` [Compound 1001], the pIC50 is 6.00 to 7.70.

For the molecule `Cc1c(CN2CCC(Nc3ncnc4sc(CC(F)(F)F)cc34)CC2)ccc2c1cc(C#N)n2CCc1ccc(NC(=O)C2(C#N)CC2)cc1` [Compound 1002], the pIC50 is 6.60 to 7.30.

Turning to `Cc1c(CN2CCC(Nc3ncnc4sc(CC(F)(F)F)cc34)CC2)ccc2c1cc(C#N)n2CCc1ccc(NC(=O)CC#N)cc1` [Compound 1003], the pIC50 is 6.60 to 7.30.

`C=CC(=O)N(C)c1ccc(CCn2c(C#N)cc3c(C)c(CN4CCC(Nc5ncnc6sc(CC(F)(F)F)cc56)CC4)ccc32)cc1` [Compound 1010]: the pIC50 was < 6.00.

With `C#CCOc1cc(CCn2c(C#N)cc3c(C)c(CN4CCC(Nc5ncnc6sc(CC(F)(F)F)cc56)CC4)ccc32)ccc1NC(=O)C=C` [Compound 1011], the pIC50 is 6.00 to 7.70.

As to `C=CC(=O)Nc1ccc(CCn2c(C#N)cc3c(C)c(CN4CCC(Nc5ncnc6sc(CC(F)(F)F)cc56)CC4)ccc32)cc1OCc1cn(CCOCCOCCOCCNC(=O)CCCC[C@H]2SC[C@H]3NC(=O)N[C@H]32)nn1` [Compound 1012], the pIC50 was < 6.00.
